Source: patent publication US11413278B2, “Compounds and methods for promoting stress resistance” (priority 2015, dated 2022)
Like-named read-outs stand apart in the source and are kept apart here.

What was measured:
WI-38 cells = experiment: CdCl2 (cadmium) resistance assay; type: cell-based, human; details: for fold induction at 10 µM: Homo sapiens, 12 h, normalized ATP measurement; for Assay 4: H2O2- & Cd-resistant / Assay 2: Cadmium-resistant: YES/NO; for Assay 2: Cadmium-resistant: * indicates partial
In short: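 Resistance to CdCl2 or MMS stress (12 h exposure) was scored in WI-38 fibroblasts pretreated with compound at 0.25–20 μM final, five doses, technical triplicates. MMS plates had compound added 24 h before MMS, after a shift to serum-free DMEM+2% BSA. Significance came from a global variance t-test over two independent runs.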

FOXO3 = experiment: qPCR analysis of FOXO3-regulated genes; type: cell-based, human; details: for fold induction at 10 µM: Homo sapiens, WI-38 cells; for K = Sestrin induction: score
In short: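 FOXO3 target-gene expression quantified by qPCR normalised to B2M, PPIA and GAPDH, in WI-38 cells after 24 h exposure to 10 μM compound. Some runs used cells first transfected 36 h with 10 nM FOXO3 or NRF2 siRNA and replated ~24 h before dosing.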

[1] = Summary score for characterization of 38 core set hits; details: for D = Triple resistant: 2-point score, multiplex resistance (cadmium, MMS, H2O2); for S = Sum of Negative scores: human; for C = H2O2- & Cd-resistant: score, resistance to both H2O2 and cadmium
In short: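 Each score sums results of individual assays on H2O2-resistance screen hits. Nematode lifespan assays were run in 4 to 6 independent trials and scored up to 2. Key phenotypes such as multiplex resistance, FOXO3/NRF2 activation and mTOR down-regulation were weighted at 2 points, with a deduction for human-cell toxicity.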

[2] = Exp. 1, WI-38 cells, read-out: Exp. 1, under Cd2Cl2 stress treatment, at 10 uM (fold change)
[3] = Exp. 2, WI-38 cells, read-out: Exp. 2, under Cd2Cl2 stress treatment, at 10 uM (fold change)
[4] = WI-38 cells, 10 μM, both stressors
[5] = score in summary of 38 core set hits
[6] = 24 hrs, n=4, qPCR normalized by B2M, read-out: DDB1 Normalized fold change
[7] = 24 hrs, n=4, qPCR normalized by B2M, read-out: GADD45A Normalized fold change
[8] = 24 hrs, n=4, qPCR normalized by B2M, read-out: SESN1 Normalized fold change
[9] = qPCR, n=4, 24 hrs, normalized by B2M, read-out: CAT Normalized fold change
[10] = qPCR, n=4, 24 hrs, normalized by B2M, read-out: SOD2 Normalized fold change
[11] = qPCR, n=4, 24 hrs, normalized by B2M, read-out: TXNIP Normalized fold change

Compound	CdCl2-resistant (WI-38 cells)	H2O2- & CdCl2-resistant (WI-38 cells)	fold induction at 10 µM (WI-38 cells; [2])	fold induction at 10 µM (WI-38 cells; [3])	CdCl2-resistant (WI-38 cells; WI-38 cells, 10 μM)	H2O2- & CdCl2-resistant (WI-38 cells; [4])	Assay 4: H2O2- & Cd-resistant (WI-38 cells)	Assay 2: Cadmium-resistant (WI-38 cells)	A = Cadmium resistant (WI-38 cells; [5])	A = Cadmium resistant (WI-38 cells; summary score)	C = H2O2- & Cd-resistant (WI-38 cells; summary score)	E = Potential FOXO3 Activation (FOXO3; 2-point score)	fold induction at 10 µM (FOXO3; [6])	fold induction at 10 µM (FOXO3; [7])	fold induction at 10 µM (FOXO3; [8])	fold induction at 10 µM (FOXO3; [9])	fold induction at 10 µM (FOXO3; [10])	fold induction at 10 µM (FOXO3; [11])	K = Sestrin induction (FOXO3)	E = Potential FOXO3 Activation (FOXO3; summary score)	other results
O=C1NCCCc2cc(Cl)sc21 [O1]	YES	YES	1.84	1.86	YES	YES	YES	YES	1	1	1	0	1.2	0.853	1.18	1.25	1.11	1.11	0	0	D = Triple resistant [1]: 0; S = Sum of Negative scores [1]: 0; C = H2O2- & Cd-resistant [1]: 1
CC1C(=O)C(C)C(c2cc(Cl)ccc2O)NC1c1cc(Cl)ccc1O (stereo not drawn) [O6]	YES	YES	2.18	2.05	YES	YES	YES	YES	1	1	1	0	0.988	0.881	1.06	0.919	0.932	1.01	0	0	D = Triple resistant [1]: 0; S = Sum of Negative scores [1]: 0; C = H2O2- & Cd-resistant [1]: 1
O=C(Nc1nc(C23CC4CC(CC(C4)C2)C3)cs1)C(c1ccccc1)c1ccccc1 [O10]	YES	YES	2.73	2	YES	YES	YES	YES	1	1	1	0	0.906	1.19	0.983	0.892	0.912	0.731	0	0	D = Triple resistant [1]: 0; S = Sum of Negative scores [1]: 0; C = H2O2- & Cd-resistant [1]: 1
